The target in experiment [1] is T1, hP2X3 (human Purinergic P2X receptors subtype 3), clone A (Homo sapiens, UniProt P56373).
T1 sequence (P56373 1-397): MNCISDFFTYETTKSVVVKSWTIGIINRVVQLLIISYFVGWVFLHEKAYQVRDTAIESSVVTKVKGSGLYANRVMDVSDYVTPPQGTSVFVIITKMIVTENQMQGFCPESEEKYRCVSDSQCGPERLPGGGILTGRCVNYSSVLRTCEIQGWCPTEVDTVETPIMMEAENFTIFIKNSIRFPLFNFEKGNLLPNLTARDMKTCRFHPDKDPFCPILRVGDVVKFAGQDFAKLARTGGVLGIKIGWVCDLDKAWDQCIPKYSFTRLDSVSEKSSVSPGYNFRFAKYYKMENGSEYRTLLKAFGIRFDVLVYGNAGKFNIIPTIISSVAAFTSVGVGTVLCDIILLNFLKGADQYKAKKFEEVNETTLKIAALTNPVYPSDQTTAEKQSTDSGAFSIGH
The experiment in a line: hP2X3 FLIPR calcium (Fluo-4) antagonist assay, clone A. The conditions noted are these: Human P2X3 FLIPR Clone A Mean IC50 (nM), RLE cells expressing hP2X3 clone A (AB016608); agonist 500 nM α,β-methylene-ATP.
Procedure: (§1) The assay used a calcium indicator dye (Fluo-4) that emits fluorescence, the intensity of which is related to the concentration of calcium that entered the cell when P2X3 was activated and the channel opened. Activation of hP2X3 or rat P2X3 and rat P2X2/3 (from the coexpression of rat P2X3 and rat P2×2) is elicited the by P2X3 agonist α,β methylene-ATP (Sigma M6517), and the resulting fluorescence is measured with a FLIPR II™ instrument (Molecular Devices). Compounds are tested for their ability to inhibit the agonist-induced fluorescent signal.
(§2) For the rat P2X2/3 HEK-TREX cells, induction of the rat P2X3 expression is used to generate the rat P2X2/3 channels in HEK-TREX cells and performed by addition of 1 μg/mL tetracycline (Invitrogen) 24 h prior to compounds testing to the HEK-TREX expressing the rat P2X2 constitutively. On the day of the experiment, the cells and test compounds are prepared as follows. […] After preparing the compounds, the medium is removed from the cell plates by inversion. A loading solution of 30 μL assay buffer containing 4 μM of the calcium indicator dye FLUO-4 AM (Molecular Probes F14202) is added to each well using a Multidrop (Labsystems). […] The incubation is terminated by washing the cells four times in assay buffer using a Skatron Embla (Molecular Devices), and 25 μL of assay buffer was left in each well. Cell plates are then transferred to the FLIPR. Experiments are initiated by measuring a baseline fluorescence reading for 10 seconds, followed by the addition of 12.5 μL of cpds and data sampling for a total 280 seconds. The experiments are terminated by addition of 12.5 μL of a reference agonist (500 nM α,β-methylene-ATP) or buffer, producing a final assay volume of 50 μL followed by data sampling for an additional 280 seconds.
(§3) In P2X3 antagonist experiments (human and rat assays) data are analysed as normalised maximal peak fluorescence monitored following agonist addition and calculated as percent of relative fluorescent counts from control agonist. The dose-response antagonist inhibition curves are analyzed in a 4-parameter sigmoidal fit using a non-linear curve-fitting program (XLfit version 5.0.6, ID Business Solutions Limited, Guildford, UK).

The target of experiment [2] is T2, rat P2X2/3 (rat P2X3 co-expressed with rat P2X2) (Rattus norvegicus, UniProt P49653+P49654).
T2 sequence (P49654 1-397): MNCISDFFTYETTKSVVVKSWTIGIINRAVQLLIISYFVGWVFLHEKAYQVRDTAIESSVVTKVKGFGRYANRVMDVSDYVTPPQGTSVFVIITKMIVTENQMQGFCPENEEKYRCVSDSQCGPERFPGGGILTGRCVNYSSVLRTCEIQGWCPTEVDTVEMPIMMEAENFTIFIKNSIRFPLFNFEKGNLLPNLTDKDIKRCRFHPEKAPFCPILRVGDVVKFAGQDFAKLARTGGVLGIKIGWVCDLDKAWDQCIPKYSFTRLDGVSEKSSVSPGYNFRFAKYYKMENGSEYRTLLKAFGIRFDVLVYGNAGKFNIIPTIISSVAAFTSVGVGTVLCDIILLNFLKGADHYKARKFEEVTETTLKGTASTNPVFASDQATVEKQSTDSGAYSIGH
T2 sequence (P49653 1-472): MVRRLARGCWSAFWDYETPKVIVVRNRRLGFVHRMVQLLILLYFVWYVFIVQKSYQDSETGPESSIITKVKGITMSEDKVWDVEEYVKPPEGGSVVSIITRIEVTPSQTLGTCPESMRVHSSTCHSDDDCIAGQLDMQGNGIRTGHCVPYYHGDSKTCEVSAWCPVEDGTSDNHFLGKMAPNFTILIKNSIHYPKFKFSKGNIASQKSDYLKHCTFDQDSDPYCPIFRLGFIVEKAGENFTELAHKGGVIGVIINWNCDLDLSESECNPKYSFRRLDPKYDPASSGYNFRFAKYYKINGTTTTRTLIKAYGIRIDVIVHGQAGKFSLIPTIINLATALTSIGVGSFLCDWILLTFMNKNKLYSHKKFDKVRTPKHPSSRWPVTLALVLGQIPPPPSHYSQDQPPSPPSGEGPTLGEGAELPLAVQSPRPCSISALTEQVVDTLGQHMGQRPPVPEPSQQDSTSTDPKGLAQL
The experiment in a line: rat P2X2/3 FLIPR calcium (Fluo-4) antagonist assay. The conditions noted are these: Rat P2X2/3 FLIPR Mean IC50 (nM), HEK-TREX cells, tetracycline-induced rat P2X3 with constitutive rat P2X2; agonist 500 nM α,β-methylene-ATP.
Procedure: as §1, §2, §3

The target of experiment [3] is T3, hP2X3 (human Purinergic P2X receptors subtype 3), clone B (Homo sapiens, UniProt P56373).
T3 sequence (P56373 1-397): T1 sequence (P56373 1-397)
The experiment in a line: hP2X3 FLIPR calcium (Fluo-4) antagonist assay, clone B. The conditions noted are these: Human P2X3 FLIPR Clone B IC50 (nM), RLE cells expressing hP2X3 clone B (NM_002559); agonist 500 nM α,β-methylene-ATP.

The record followed here is patent publication US20090099195A1 (ASTRAZENECA AB, priority 2007, published 2009).

With `CC(C)N1Cc2c(NC(C)(C)Cc3ccc(Cl)cc3)nc(N3CCN(C)C(=O)C3)nc2C1=O` [Example 69, 4-{[2-(4-chlorophenyl)-1,1-dimethylethyl]amino}-6-isopropyl-2-(4-methyl-3-oxopiperazin-1-yl)-5,6-dihydro-7H-pyrrolo[3,4-d]pyrimidin-7-one], the half-maximal inhibitory concentration (IC50) (in general, the concentration needed to halve the response being measured) in experiment [1] was found to be 86.2 nM; in experiment [2] it was 1920 nM; in experiment [3], 140 nM.

Take `CC(=O)N1CCN(c2nc(NCc3ccc4nc(C)ccc4c3)c3c(n2)C(=O)N(C(C)C)C3)CC1` [Example 242, 2-(4-acetylpiperazin-1-yl)-6-isopropyl-4-((2-methylquinolin-6-yl)methylamino)-5H-pyrrolo[3,4-d]pyrimidin-7(6H)-one]: the IC50 in experiment [2] stood at 10400 nM; in experiment [3] it was 65 nM.

For `CC(=O)N1CCN(c2nc(N[C@H](C)c3ccc4ncccc4c3)c3c(n2)C(=O)N(C(C)C)C3)CC1` [Example 243, (R)-2-(4-acetylpiperazin-1-yl)-6-isopropyl-4-(1-(quinolin-6-yl)ethylamino)-5H-pyrrolo[3,4-d]pyrimidin-7(6H)-one], the IC50 in experiment [2] is 1240 nM; in experiment [3] it was 36 nM.

As for `CCN(Cc1cc2ccccc2cn1)c1nc(N2CCN(C(C)=O)CC2)nc2c1CN(C(C)C)C2=O` [Example 245, 2-(4-acetylpiperazin-1-yl)-4-(ethyl(isoquinolin-3-ylmethyl)amino)-6-isopropyl-5H-pyrrolo[3,4-d]pyrimidin-7(6H)-one], the IC50 in experiment [2] is 2160 nM; in experiment [3] it was 28 nM.

Take `CCN(Cc1cnc2ccccc2c1)c1nc(N2CCN(C(C)=O)CC2)nc2c1CN(C(C)C)C2=O` [Example 246, 2-(4-acetylpiperazin-1-yl)-4-(ethyl(quinolin-3-ylmethyl)amino)-6-isopropyl-5H-pyrrolo[3,4-d]pyrimidin-7(6H)-one]: the IC50 in experiment [2] came out at 10400 nM; in experiment [3], 68 nM.

As for `CC(=O)N1CCN(c2nc(NCc3cc(C)c4ncccc4c3)c3c(n2)C(=O)N(C(C)C)C3)CC1` [Example 247, 2-(4-acetylpiperazin-1-yl)-6-isopropyl-4-((8-methylquinolin-6-yl)methylamino)-5H-pyrrolo[3,4-d]pyrimidin-7(6H)-one], the figures for the concentration for half-maximal inhibition (IC50) in experiment [2] and in experiment [3] were 9070 nM and 77 nM, respectively.

Consider `CC(=O)N1CCN(c2nc(NCc3cc4ccccc4c(N(C)C)n3)c3c(n2)C(=O)N(C(C)C)C3)CC1` [Example 252, 2-(4-acetylpiperazin-1-yl)-4-((1-(dimethylamino)isoquinolin-3-yl)methylamino)-6-isopropyl-5H-pyrrolo[3,4-d]pyrimidin-7(6H)-one], for which the 50% inhibitory concentration (IC50) in experiment [2] turned out to be 2110 nM; in experiment [3], 87 nM.

For `CC(=O)N1CCN(c2nc3c(c(N(Cc4cc5ccccc5cn4)CC4CC4)n2)CN(C(C)C)C3=O)CC1` [Example 253, 2-(4-acetylpiperazin-1-yl)-4-((cyclopropylmethyl)(isoquinolin-3-ylmethyl)amino)-6-isopropyl-5H-pyrrolo[3,4-d]pyrimidin-7(6H)-one], the half-maximal inhibitory concentration (IC50) in experiment [2] came out at 1110 nM; in experiment [3], 63 nM.

Turning to `CC(=O)N1CCN(c2nc3c(c(N4CCC[C@@H]4C(=O)OCc4ccccc4)n2)CN(C(C)C)C3=O)CC1` [Example 265, benzyl (2R)-1-[4-(4-acetylpiperazin-1-yl)-7-oxo-8-propan-2-yl-3,5,8-triazabicyclo[4.3.0]nona-1,3,5-trien-2-yl]pyrrolidine-2-carboxylate], the figures for the IC50 in experiment [2] and in experiment [3] were 15700 nM and 850 nM, respectively.

As to `CC(=O)N1CCN(c2nc3c(c(N4CCCCC4Cc4ccc(F)cc4)n2)CN(C(C)C)C3=O)CC1` (centres unmarked) [Example 268, 4-(4-acetylpiperazin-1-yl)-2-[2-[(4-fluorophenyl)methyl]-1-piperidyl]-8-propan-2-yl-3,5,8-triazabicyclo[4.3.0]nona-1,3,5-trien-7-one], the 50% inhibitory concentration (IC50) in experiment [2] was determined as 12400 nM; in experiment [3] it was 500 nM.

In the case of `CC(=O)N1CCN(c2nc3c(c(N4CCCC4c4cc(C)cc(C)c4)n2)CN(C(C)C)C3=O)CC1` (centres unmarked) [Example 270, 4-(4-acetylpiperazin-1-yl)-2-[2-(3,5-dimethylphenyl)pyrrolidin-1-yl]-8-propan-2-yl-3,5,8-triazabicyclo[4.3.0]nona-2,4,10-trien-7-one], the IC50 turned out to be 9910 nM in experiment [2] and 340 nM in experiment [3].

Regarding `CCOc1ccc(C2CCCN2c2nc(N3CCN(C(C)=O)CC3)nc3c2CN(C(C)C)C3=O)cc1` (centres unmarked) [Example 272, 4-(4-acetylpiperazin-1-yl)-2-[2-(4-ethoxyphenyl)pyrrolidin-1-yl]-8-propan-2-yl-3,5,8-triazabicyclo[4.3.0]nona-2,4,10-trien-7-one], the IC50 in experiment [2] turned out to be 12900 nM; in experiment [3], 270 nM.

Regarding `CC(=O)N1CCN(c2nc3c(c(N4CCCC4c4cnc5ccccc5c4)n2)CN(C(C)C)C3=O)CC1` (centres unmarked) [Example 274, 4-(4-acetylpiperazin-1-yl)-8-propan-2-yl-2-(2-quinolin-3-ylpyrrolidin-1-yl)-3,5,8-triazabicyclo[4.3.0]nona-1,3,5-trien-7-one], the IC50 in experiment [2] came out at 768 nM; in experiment [3] it was 170 nM.

For the molecule `CCC(c1ccccc1)C1CCCN1c1nc(N2CCN(C(C)=O)CC2)nc2c1CN(C(C)C)C2=O` (centres unmarked) [Example 275, 4-(4-acetylpiperazin-1-yl)-2-[2-(1-phenylpropyl)pyrrolidin-1-yl]-8-propan-2-yl-3,5,8-triazabicyclo[4.3.0]nona-2,4,10-trien-7-one], the half-inhibitory concentration (IC50) in experiment [2] was found to be 10300 nM; in experiment [3], 760 nM.

For `CC(=O)N1CCN(c2nc3c(c(N4CCCC4c4ccc5ncccc5c4)n2)CN(C(C)C)C3=O)CC1` (centres unmarked) [Example 281, 4-(4-acetylpiperazin-1-yl)-8-propan-2-yl-2-(2-quinolin-6-ylpyrrolidin-1-yl)-3,5,8-triazabicyclo[4.3.0]nona-1,3,5-trien-7-one], the IC50 was found to be 11400 nM in experiment [2] and 140 nM in experiment [3].

Turning to `COc1ccc(CC2CCCN2c2nc(N3CCN(C(C)=O)CC3)nc3c2CN(C(C)C)C3=O)cc1` (centres unmarked) [Example 286, 2-(4-acetylpiperazin-1-yl)-6-isopropyl-4-[2-[(4-methoxyphenyl)methyl]pyrrolidin-1-yl]-5H-pyrrolo[3,4-d]pyrimidin-7-one], the IC50 in experiment [2] came to 3430 nM; in experiment [3], 67 nM.

As for `CC(=O)N1CCN(c2nc3c(c(N4CCC[C@@H]4C(=O)Oc4ccccc4)n2)CN(C(C)C)C3=O)CC1` [Example 304, phenyl (2R)-1-[4-(4-acetylpiperazin-1-yl)-7-oxo-8-propan-2-yl-3,5,8-triazabicyclo[4.3.0]nona-1,3,5-trien-2-yl]pyrrolidine-2-carboxylate], the concentration for half-maximal inhibition (IC50) in experiment [2] worked out at 8730 nM; in experiment [3], 71 nM.
